Measurements from US20240058373A1, “FIBRE MIXTURE FOR YOUNG CHILDREN” (N.V. Nutricia, priority 2020, published 2024).

Test system: standard human gut microbiota pool
Assay: i-screen fermentation of fibres by faecal microbiota: pH and SCFA/BCFA formation
Format: cell-based
Details: after 24 h of fermentation in SIEM medium at 37° C., fibres 10 mg/ml
From the text: For studying fermentation of fibres by microbiota the i-screen platform was used, see Schuren et al., The i-screen: A Versatile Preclinical Platform for Gut Microbiota Studies, J Prob Health 2019 7:212. A standard human gut microbiota pool was used for the fermentation. This pool was established via fecal donations from 6 healthy volunteers (Caucasian individuals, age 25-60 years, no antibiotic use in the 3 months preceding the donation, self-assessment of health status). Before starting the i-screen fermentation with the test compounds, the standardized fecal pool was incubated in SIEM (standard ileal effluent medium) under anaerobic conditions overnight (37° C.; 300 rpm) in order to activate the bacteria.
The fibres were tested at a concentration of 10 mg/ml. All compounds were tested in triplicate.
The following conditions were applied: • 1 No added fibres, SIEM medium only • 2 Mixture of beta-galactooligosaccharides (Vivinal GOS, Friesland Campina), inulin (Orafti HP (Beneo-Orafti Orey) Beneo BE), resistant starch (Novelose 330 (Ingredion UK Ltd) and non-soluble soy polysaccharides, source Fibrim 2000 (DuPont/Danisco) in a weight ratio of 38:38:4:20, prior art MF4 • 3 Mixture of beta-galactooligosaccharides (Vivinal GOS, Friesland Campina), inulin (Orafti HP (Beneo-Orafti Orey) Beneo BE), resistant starch (Novelose 330 (Ingredion UK Ltd) and soluble soy polysaccharides, source Soyafibe-S-Ca100 (Fuji Oil Co, Ltd), in a weight ratio of 38:38:4:20, new MF4 • 4 Lactulose (Duphalac Lactulose, Solvay, the Netherlands)
After 24 hours of fermentation in SIEM medium at 37° C., samples were collected for pH measurements, DNA isolation and for metabolite analysis. The remaining material was stored at −20° C.
DNA was isolated as described by Ladirat et al. J Microbiol Meth 2013, 92(3), 387-397 with some minor adjustments: the samples were initially mixed with 300 μl lysis buffer (Agowa, Berlin, Germany), 500 μl zirconium beads (0.1 mm), and 500 μl phenol, before being introduced to a Bead Beater (BioSpec Products, Bartlesville, OK, USA) for 3 min. 16S amplicon sequencing DNA was analyzed by using 16S rDNA amplicon sequencing. The V4 hypervariable region was targeted. […] Amplicon quality and size were analyzed on a Fragment Analyzer (Advanced Analytical Technologies, Inc.). […] SCFA covering acetate, propionate, and n-butyrate and branched chain fatty acids (BCFA) covering iso-butyrate and iso-valerate were analyzed as described by as described by Van Nuenen Microbiology in Health and Disease 2003, 15: 137-144. […]
For the analysis of total lactate, material resulting from the i-screen fermentation was sampled and centrifuged at 4,000 g for 5 minutes. […] The D- and L-lactate were determined by the Arena 20XL analyser. […]

Compound: OC[C@H]1O[C@@H](O[C@@H]2[C@@H](CO)OC(O)(CO)[C@H]2O)[C@H](O)[C@@H](O)[C@H]1O (mixture of isomers) [lactulose, Lactulose]
- Mean Butyrate: 49.39 mM
- Mean Propionate: 6.61 mM
- Mean Acetate (value (s.d.)): 44.93 (1.40) mM
- Mean Total SCFA (value (s.d.)): 100.9 (2.67) mM
